Measurements taken from patent US20230031406A1, “COMPOUNDS AND COMPOSITIONS FOR TREATING CONDITIONS ASSOCIATED WITH NLRP ACTIVITY” (Novartis AG, priority 2018, published 2023).
Where two headings read alike, the source gives them in different places. One block for each molecule: values may come before it.

Tested on: PMA-differentiated THP-1 cells
Assay: IL-1β production in PMA-differentiated THP-1 cells stimulated with gramicidin (hTHP-1 assay containing 2% fetal bovine serum; Procedures 1 and 2)
Format: cell-based, human
Conditions: 2% fetal bovine serum
Procedure, shortened: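 THP-1 cells were differentiated with PMA (20 ng/ml, 16-18 h), detached, and plated at 50,000 cells/well in RPMI 1640 with 2% FBS. They were pre-treated with compound (0.0017–100 μM, 0.37% DMSO) for 1 h, then stimulated with gramicidin (5 μM) for 2 h. Supernatant IL-1β was measured by HTRF.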

[1] = Table B3, hTHP-1 assay, class symbols, read-out: IC50
[2] = Table B1, class symbols, read-out: Average IC50 of compounds in hTHP-1 assay: hTHP-1 IC50
[3] = Homo sapiens, THP-1, Table B2, class symbols, read-out: hTHP-1 IC50
[4] = Homo sapiens, THP-1, Table B1, class symbols, read-out: Average IC50 of compounds in hTHP-1 assay: hTHP-1 IC50
[5] = Table B2, class symbols, read-out: hTHP-1 IC50
[6] = Homo sapiens, THP-1, Table B2, numeric bounds, read-out: hTHP-1 IC50
[7] = Homo sapiens, THP-1, Table B1, numeric bounds, read-out: Average IC50 of compounds in hTHP-1 assay: hTHP-1 IC50

- IC50 [1]: 0.04 to 0.2 µM
SMILES: CCn1cc(F)c(S(N)(=O)=NC(=O)Nc2c(C)c(C(F)(F)F)nc3c2CCC3)n1 (single isomer, unassigned) [Example 649, (R) or (S)-1-ethyl-4-fluoro-N′-((3-methyl-2-(trifluoromethyl)-6,7-dihydro-5H-cyclopenta[b]pyridin-4-yl)carbamoyl)-1H-pyrazole-3-sulfonimidamide]

- IC50 [2]: 0.2 to 1 µM
SMILES: CC(C)c1ncc(F)c(C(C)C)c1NC(=O)N=S(N)(=O)c1ncc(C(C)(C)O)s1 [Compound 165a, (R)- and (S)-N′-((5-fluoro-2,4-diisopropylpyridin-3-yl)carbamoyl)-5-(2-hydroxypropan-2-yl)thiazole-2-sulfonimidamide]

- IC50 [3]: 1 to 5 µM
SMILES: Cc1c(CC2CC2)nc2c(c1NC(=O)N=S(N)(=O)c1cc(C(C)(C)O)cs1)CCC2 (single isomer, unassigned) [Compound 665b, (R) or (S)-N′-((2-(cyclopropylmethyl)-3-methyl-6,7-dihydro-5H-cyclopenta[b]pyridin-4-yl)carbamoyl)-4-(2-hydroxypropan-2-yl)thiophene-2-sulfonimidamide]

- IC50 [4]: 0.2 to 1 µM
SMILES: CC(C)(O)c1ccc(S(N)(=O)=NC(=O)Nc2c3c(nc4c2CCC4)CCC3)s1 (single isomer, unassigned) [Compound 149a, (R) or (S)-N′-((1,2,3,5,6,7-hexahydrodicyclo-penta[b,e]pyridin-8-yl)carbamoyl)-5-(2-hydroxypropan-2-yl)thiophene-2-sulfonimidamide]

- IC50 [2]: 5 to 30 µM
SMILES: Cc1c(C2CC2)nc2c(c1NC(=O)N=S(N)(=O)c1cnc(C(C)(C)O)s1)CCC2 (single isomer, unassigned) [Compound 124a, (S) or (R)-N′-((2-cyclopropyl-3-methyl-6,7-dihydro-5H-cyclopenta[b]pyridin-4-yl)carbamoyl)-2-(2-hydroxypropan-2-yl)thiazole-5-sulfonimidamide]

- IC50 [4]: 5 to 30 µM
SMILES: CC(C)(O)c1ncc(S(N)(=O)=NC(=O)Nc2c3c(nc4c2CCC4O)CCC3)s1 (stereo not shown) [Compound 178, N′-((3-hydroxy-1,2,3,5,6,7-hexahydrodicyclopenta[b,e]pyridin-8-yl)carbamoyl)-2-(2-hydroxypropan-2-yl)thiazole-5-sulfonimidamide]

- IC50 [2]: 0.04 to 0.2 µM
SMILES: CC1CCc2c1nc1c(c2NC(=O)N=S(N)(=O)c2cc(C(C)(C)O)cs2)CCC1 (single isomer, unassigned) [Compound 141b, (R,R/S) or (S,R/S)-4-(2-hydroxypropan-2-yl)-N′-((3-methyl-1,2,3,5,6,7-hexahydro-dicyclopenta[b,e]pyridin-8-yl)carbamoyl)thiophene-2-sulfonimidamide]

- IC50 [2]: 0.008 to 0.04 µM
SMILES: CC1CCc2c1nc1c(c2NC(=O)N=S(N)(=O)c2cc(C(C)(C)O)cs2)CCC1 (single isomer, unassigned) [Compound 141aa, (R,R) or (R,S)-4-(2-hydroxypropan-2-yl)-N′-((3-methyl-1,2,3,5,6,7-hexahy-drodicyclopenta[b,e]pyridin-8-yl)carbamoyl)thiophene-2-sulfonimidamide]

- IC50 [3]: 0.2 to 1 µM
SMILES: Cc1c(C(F)(F)F)nc2c(c1NC(=O)N=[S@](N)(=O)c1cnc(C(C)(C)O)s1)CC[C@@H]2C [Compound 608a]

- IC50 [5]: 5 to 30 µM
SMILES: CC1(C)CCc2c1nc1c(c2NC(=O)N=S(N)(=O)c2sc(C(C)(O)CO)cc2F)CCC1 (single isomer, unassigned) [Compound 699c, (R, S) and (S, S) or (S, R) and (R, R)-5-(1,2-Dihydroxypropan-2-yl)-N′-((3,3-dimethyl-1,2,3,5,6,7-hexahydrodicyclopenta [b,e]pyridin-8-yl)carbamoyl)-3-fluorotliophene-2-sulfonimidamide]

- IC50 [5]: 0.2 to 1 µM
SMILES: CC1(C)CCc2c1nc1c(c2NC(=O)N=S(N)(=O)c2sc(C(C)(O)CO)cc2F)CCC1 (stereo not shown) [Compound 640, 5-(1,2-Dihydroxypropan-2-yl)-N′-((3,3-dimethyl-1,2,3,5,6,7-hexahydrodicyclopenta[b,e]pyridin-8-yl)carbamoyl)-3-fluorothiophene-2-sulfonimidamide]

- IC50 [6]: > 30 µM
SMILES: Cc1cn(C(C)C)nc1S(N)(=O)=NC(=O)Nc1c2c(nc3c1CCC3)CCC2 (single isomer, unassigned) [Compound 687a, (S) or (R)-N′-((1,2,3,5,6,7-hexahydrodicyclopenta [b,e]pyridin-8-yl)carbamoyl)-1-isopropyl-4-methyl-1H-pyrazole-3-sulfonimidamide]

- IC50 [3]: 1 to 5 µM
SMILES: CNS(=O)(=O)c1cccc(S(N)(=O)=NC(=O)Nc2c3c(nc4c2CCC4(C)C)CCC3)c1 (stereo not shown) [Compound 735, 3-(N′-((3,3-dimethyl-1,2,3,5,6,7-hexahydrodicyclopenta [b,e]pyridin-8-yl)carbamoyl)sulfamidimidoyl)-N-methylbenzenesulfonamide]

- IC50 [7]: > 24 µM
SMILES: CC(C)(O)c1nc(CCO)c(S(N)(=O)=NC(=O)Nc2c3c(nc4c2CCC4)CCC3)s1 (single isomer, unassigned) [Compound 118b, (S) or (R)-N′-((1,2,3,5,6,7-hexahydrodicyclo-penta[b,e]pyridin-8-yl)carbamoyl)-4-(2-hydroxyethyl)-2-(2-hydroxypropan-2-yl)thiazole-5-sulfonimidamide]

- IC50 (Table B4, class symbols, read-out: hTHP-1 IC50): 0.2 to 1 µM
SMILES: CCc1c(C(F)(F)F)nc2c(c1NC(=O)N=S(N)(=O)c1nn(CC)cc1F)CCC2 (single isomer, unassigned) [Example 771, (R) or (S)-1-ethyl-N′-((3-ethyl-2-(trifluoromethyl)-6,7-dihydro-5H-cyclopenta[b]pyridin-4-yl)carbamoyl)-4-fluoro-1H-pyrazole-3-sulfonimidamide]

- IC50 [4]: 0.2 to 1 µM
SMILES: Cc1sc(S(N)(=O)=NC(=O)Nc2c3c(nc4c2CCC4)CCC3)cc1C(C)(C)O (stereo not shown) [Compound 107, N′-((1,2,3,5,6,7-hexahydrodicyclopenta[b,e]pyridin-8-yl)carbamoyl)-4-(2-hydroxypropan-2-yl)-5-methylthiophene-2-sulfonimidamide]

- IC50 (Homo sapiens, THP-1, Table B3, hTHP-1 assay, numeric values, read-out: IC50): > 30 µM
SMILES: CCn1nc(S(N)(=O)=NC(=O)Nc2c3c(nc4c2CCC4(C)C)CCC3)cc1CO (single isomer, unassigned) [Example 725, (S) or (R)-N′-((3,3-dimethyl-1,2,3,5,6,7-hexahydrodicyclopenta[b,e]pyridin-8-yl)carbamoyl)-1-ethyl-5-(hydroxymethyl)-1H-pyrazole-3-sulfonimidamide]

- IC50 [4]: 0.04 to 0.2 µM
SMILES: CC(C)(O)c1cc(F)c(S(N)(=O)=NC(=O)Nc2c3c(nc4c2CCC4(C)C)CCC3)s1 (stereo not shown) [Compound 102, N′-((3,3-dimethyl-1,2,3,5,6,7-hexahydrodicyclopenta[b,e]pyridin-8-yl)carbamoyl)-3-fluoro-5-(2-hydroxypropan-2-yl)thiophene-2-sulfonimidamide]

- IC50 (Homo sapiens, THP-1, Table B3, hTHP-1 assay, class symbols, read-out: IC50): 0.2 to 1 µM
SMILES: Cc1c(C(F)(F)F)nc2c(c1NC(=O)N=[S@@](N)(=O)c1cnc(C(C)(C)O)s1)CC(C)C2 (stereo partly drawn) [Example 576, (R)-N′-((3,6-dimethyl-2-(trifluoromethyl)-6,7-dihydro-5H-cyclopenta[b]pyridin-4-yl)carbamoyl)-2-(2-hydroxypropan-2-yl)thiazole-5-sulfonimidamide]

- IC50 [6]: > 30 µM
SMILES: CC1CCc2c1nc1c(c2NC(=O)N=S(N)(=O)c2cnn(C(C)C)c2)CCC1 (single isomer, unassigned) [Compound 171a, (S, R) and (S, S) or (R, S) and (R, R)-1-Isopropyl-N′-((3-methyl-1,2,3,5,6,7-hexahydrodicyclopenta [b,e]pyridin-8-yl)carbamoyl)-1H-pyrazole-4-sulfonimidamide]

- IC50 [7]: > 20 µM
SMILES: CC(C)c1csc(S(N)(=O)=NC(=O)Nc2c3c(nc4c2CCC4)CCC3)c1 (single isomer, unassigned) [Compound 173b, (S) or (R)-N′-((1,2,3,5,6,7-hexahydrodicyclo-penta[b,e]pyridin-8-yl)carbamoyl)-4-isopropylthiophene-2-sulfonimidamide]

- IC50 [5]: 5 to 30 µM
SMILES: CCn1ccc(S(N)(=O)=NC(=O)Nc2c3c(nc4c2CCC4(C)C)CCC3)n1 (single isomer, unassigned) [Compound 697a, (S) or (R)-N′-((3,3-dimethyl-1,2,3,5,6,7-hexahydrodicyclopenta [b,e]pyridin-8-yl)carbamoyl)-1-ethyl-1H-pyrazole-3-sulfonimidamide]

- IC50 [1]: 0.2 to 1 µM
SMILES: Cc1c(C(F)(F)F)nc2c(c1NC(=O)N=S(N)(=O)c1nn(C(F)F)cc1F)CCC2 (single isomer, unassigned) [Example 562]

- IC50 [2]: 0.2 to 1 µM
SMILES: CC1CCc2c1nc1c(c2NC(=O)N=S(N)(=O)c2sc(C(C)(C)O)nc2CO)CCC1 (single isomer, unassigned) [Compound 168ba, (R,S) or (R,R)-4-(hydroxymethyl)-2-(2-hydroxypropan-2-yl)-N′-((3-methyl-1,2,3,5,6,7-hexahydrodicyclo-penta[b,e]pyridin-8-yl)carbamoyl)thiazole-5-sulfonimidamide]

- IC50 [2]: 0.2 to 1 µM
SMILES: CC1CCc2c1nc1c(c2NC(=O)N=S(N)(=O)c2cc(C(C)(C)O)cs2)CCC1C [Compound 131a, (R,S,S) and (R,R,R)-N′-((3,5-dimethyl-1,2,3,5,6,7-hexa-hydrodicyclo-penta[b,e]pyridin-8-yl)carbamoyl)-4-(2-hy-droxypropan-2-yl)thiophene-2-sulfonimidamide]
